Measured values published in the supplement of paper PMC10307832.

Tests used:
Assay in all cases: relative viability (nuclei count vs DMSO), 5 days (fraction); higher = more cells survive
CAL-12T = system: CAL-12T
How it was run: (§1)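 For relative viability, nuclei counts in treated wells were divided by those in vehicle wells. Lung cancer cell lines had been pin-tool dosed in 1536-well plates the day after seeding and cultured for 5 days, then fixed and stained in one step (final 0.05% Triton X-100, 1% formaldehyde, 1 ug/ml Hoechst) and imaged at 4×. Doses were one drug alone or a fixed anchor-drug dose plus five library-drug doses (not always all listed) in √10 steps, and values are duplicate-plate medians.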

NCI-H2228 = system: NCI-H2228
How it was run: as §1

NCI-H650 = system: NCI-H650
How it was run: as §1

NCI-H1563 = system: NCI-H1563
How it was run: as §1

A549 = system: A549
How it was run: as §1

IA-LM = system: IA-LM
How it was run: as §1

Calu-6 = system: Calu-6
How it was run: as §1

NCI-H1703 = system: NCI-H1703
How it was run: as §1

NCI-H1299 = system: NCI-H1299
How it was run: as §1

EBC-1 = system: EBC-1
How it was run: as §1

In the case of `C=C1C(=O)O[C@@H](CCCCCCCC)[C@@H]1C(=O)O` [C-75] + Nc1nc2[nH]cc(CCc3ccc(C(=O)N[C@@H](CCC(=O)O)C(=O)O)cc3)c2c(=O)[nH]1 [Pemetrexed] (partner 0.2 µM), the relative viability (CAL-12T; first compound 0.08 µM) is reported as 1.37, the relative viability (CAL-12T; first compound 0.253 µM) is reported as 1.45 and the relative viability (CAL-12T; first compound 0.8 µM) is reported as 1.11. It also gave a relative viability (CAL-12T; first compound 2.53 µM) of 1.05, a relative viability (CAL-12T; first compound 8 µM) of 1.27 and a relative viability (NCI-H2228; first compound 0.08 µM) of 0.33. For the same molecule, the relative viability (NCI-H2228; first compound 0.253 µM) was 0.332, the relative viability (NCI-H2228; first compound 0.8 µM) was 0.29 and the relative viability (NCI-H2228; first compound 2.53 µM) was 0.333. It also gave a relative viability (NCI-H2228; first compound 8 µM) of 0.318, a relative viability (NCI-H650; first compound 0.08 µM) of 1.28 and a relative viability (NCI-H650; first compound 0.253 µM) of 0.888. For the same molecule, the relative viability (NCI-H650; first compound 0.8 µM) was 0.857, the relative viability (NCI-H650; first compound 2.53 µM) was 0.823 and the relative viability (NCI-H650; first compound 8 µM) was 0.882. For the same molecule, the relative viability (NCI-H1563; first compound 0.08 µM) was 0.8, the relative viability (NCI-H1563; first compound 0.253 µM) was 0.915 and the relative viability (NCI-H1563; first compound 0.8 µM) was 0.753. The relative viability (NCI-H1563; first compound 2.53 µM) was 0.666 and the relative viability (NCI-H1563; first compound 8 µM) was 0.924.

In the case of `C=C1C(=O)O[C@@H](CCCCCCCC)[C@@H]1C(=O)O` [C-75] + Nc1ncn([C@H]2C[C@H](O)[C@@H](CO)O2)c(=O)n1 [Decitabine] (partner 2 µM), the relative viability (A549; first compound 0.08 µM) is reported as 0.27, the relative viability (A549; first compound 0.253 µM) is reported as 0.255 and the relative viability (A549; first compound 0.8 µM) is reported as 0.273. For the same molecule, the relative viability (A549; first compound 2.53 µM) was 0.35, the relative viability (A549; first compound 8 µM) was 0.215 and the relative viability (NCI-H650; first compound 0.08 µM) was 0.315. The relative viability (NCI-H650; first compound 0.253 µM) was 0.35, the relative viability (NCI-H650; first compound 0.8 µM) was 0.329 and the relative viability (NCI-H650; first compound 2.53 µM) was 0.294. It also gave a relative viability (NCI-H650; first compound 8 µM) of 0.403.

For `C=C1C(=O)O[C@@H](CCCCCCCC)[C@@H]1C(=O)O` [C-75] + O=C(CCCCCCC(=O)Nc1ccccc1)NO [Vorinostat] (partner 1 µM), the relative viability (CAL-12T; first compound 0.08 µM) was 0.721, the relative viability (CAL-12T; first compound 0.253 µM) was 1.12 and the relative viability (CAL-12T; first compound 0.8 µM) was 0.918. For the same molecule, the relative viability (CAL-12T; first compound 2.53 µM) was 0.674, the relative viability (CAL-12T; first compound 8 µM) was 0.89 and the relative viability (IA-LM; first compound 0.08 µM) was 0.886. It also gave a relative viability (IA-LM; first compound 0.253 µM) of 1.35, a relative viability (IA-LM; first compound 0.8 µM) of 0.935 and a relative viability (IA-LM; first compound 2.53 µM) of 1.25. The relative viability (IA-LM; first compound 8 µM) was 0.8, the relative viability (NCI-H2228; first compound 0.08 µM) was 0.617 and the relative viability (NCI-H2228; first compound 0.253 µM) was 0.681. It also gave a relative viability (NCI-H2228; first compound 0.8 µM) of 0.661, a relative viability (NCI-H2228; first compound 2.53 µM) of 0.67 and a relative viability (NCI-H2228; first compound 8 µM) of 0.562. It also gave a relative viability (NCI-H650; first compound 0.08 µM) of 0.413, a relative viability (NCI-H650; first compound 0.253 µM) of 0.388 and a relative viability (NCI-H650; first compound 0.8 µM) of 0.401. The relative viability (NCI-H650; first compound 2.53 µM) was 0.351 and the relative viability (NCI-H650; first compound 8 µM) was 0.416.

With `C=C1C(=O)O[C@@H](CCCCCCCC)[C@@H]1C(=O)O` [C-75] + O=C(c1cc(Cc2n[nH]c(=O)c3ccccc23)ccc1F)N1CCN(C(=O)C2CC2)CC1 [Olaparib] (partner 8 µM) the relative viability (Calu-6; first compound 0.08 µM) was 0.558, the relative viability (Calu-6; first compound 0.253 µM) was 0.576 and the relative viability (Calu-6; first compound 0.8 µM) was 0.522. For the same molecule, the relative viability (Calu-6; first compound 2.53 µM) was 0.489, the relative viability (Calu-6; first compound 8 µM) was 0.469 and the relative viability (NCI-H1703; first compound 0.08 µM) was 0.416. It also gave a relative viability (NCI-H1703; first compound 0.253 µM) of 0.391, a relative viability (NCI-H1703; first compound 0.8 µM) of 0.348 and a relative viability (NCI-H1703; first compound 2.53 µM) of 0.441. For the same molecule, the relative viability (NCI-H1703; first compound 8 µM) was 0.432, the relative viability (CAL-12T; first compound 0.08 µM) was 0.774 and the relative viability (CAL-12T; first compound 0.253 µM) was 0.796. For the same molecule, the relative viability (CAL-12T; first compound 0.8 µM) was 0.788, the relative viability (CAL-12T; first compound 2.53 µM) was 0.766 and the relative viability (CAL-12T; first compound 8 µM) was 0.793. For the same molecule, the relative viability (NCI-H1299; first compound 0.08 µM) was 0.946, the relative viability (NCI-H1299; first compound 0.253 µM) was 0.976 and the relative viability (NCI-H1299; first compound 0.8 µM) was 0.974. It also gave a relative viability (NCI-H1299; first compound 2.53 µM) of 0.93, a relative viability (NCI-H1299; first compound 8 µM) of 0.924 and a relative viability (EBC-1; first compound 0.08 µM) of 0.62. For the same molecule, the relative viability (EBC-1; first compound 0.253 µM) was 0.807, the relative viability (EBC-1; first compound 0.8 µM) was 0.692 and the relative viability (EBC-1; first compound 2.53 µM) was 0.613. For the same molecule, the relative viability (EBC-1; first compound 8 µM) was 0.536, the relative viability (IA-LM; first compound 0.08 µM) was 0.803 and the relative viability (IA-LM; first compound 0.253 µM) was 0.885. For the same molecule, the relative viability (IA-LM; first compound 0.8 µM) was 0.788, the relative viability (IA-LM; first compound 2.53 µM) was 0.761 and the relative viability (IA-LM; first compound 8 µM) was 0.767. For the same molecule, the relative viability (NCI-H2228; first compound 0.08 µM) was 0.709, the relative viability (NCI-H2228; first compound 0.253 µM) was 0.897 and the relative viability (NCI-H2228; first compound 0.8 µM) was 0.494. It also gave a relative viability (NCI-H2228; first compound 2.53 µM) of 0.543, a relative viability (NCI-H2228; first compound 8 µM) of 0.414 and a relative viability (A549; first compound 0.08 µM) of 0.394. It also gave a relative viability (A549; first compound 0.253 µM) of 0.497, a relative viability (A549; first compound 0.8 µM) of 0.216 and a relative viability (A549; first compound 2.53 µM) of 0.128. It also gave a relative viability (A549; first compound 8 µM) of 0.251, a relative viability (NCI-H650; first compound 0.08 µM) of 0.397 and a relative viability (NCI-H650; first compound 0.253 µM) of 0.438. It also gave a relative viability (NCI-H650; first compound 0.8 µM) of 0.457, a relative viability (NCI-H650; first compound 2.53 µM) of 0.397 and a relative viability (NCI-H650; first compound 8 µM) of 0.4.
